Results: patent US10563272B2, “Compositions comprising Metarhizium fungi and use thereof as a pesticide” (Cotton Research and Development Corporation, priority 2015, dated 2020)

Key:
predatory bugs [1] = assay: Rate trial on conventional cotton, Norwood 2012 (Example 10): predatory bugs; type: in vivo, Hemiptera (Nabidae, Lygaeidae, Pentatomidae); settings: P>0.05
Experimental: This trial was conducted on commercial conventional cotton crops on a farm at Norwood (29° 28'S, 149° 50′E) near Moree, NSW, from 28 Feb. to 21 Mar. 2012. The cotton used for the trial was at the early squaring stage, when it was attractive to green mirids (Khan et al. 2004).
(§1) The efficacy of the following treatments against green mirids and predatory insects were evaluated: • 1. 250 mL/ha DAT 511 spore in oil (1×10^7 spores/ml); • 2. 500 mL/ha DAT 511 spore in oil (1×10^7 spores/ml); • 3. 1 L/ha DAT 511 spore in oil (1×10^7 spores/ml); • 4. 62.5 mL/ha of Fipronil; and • 5. Unsprayed (negative control).
The treatment plots were arranged in a randomized complete block design with six replicates per treatment. Each replicated plot measured 40 m wide (40 rows) and 90 m long.
Foliar application of each treatment was made on 28 Feb. (for both green mirids and beneficial insects) and 13 Mar. […]
Pre-treatment counts of adult and nymph green mirids, predatory beetles, predatory bugs, predatory lacewings and spiders were made by visual inspection of whole cotton plants. Both adults and nymphs of beneficial insects were counted. Plants were assessed in randomly selected one-metre lengths of row of each treatment replicate (i.e. 6 m per treatment). […] Data are expressed as numbers of green mirid adults and nymphs counted per metre per treatment.

predatory bugs [2] = assay: Foliar spray trial on Bollgard II cotton, Norwood 2010-11 (Example 7): predatory bugs; type: in vivo, Hemiptera (Nabidae, Lygaeidae, Pentatomidae); settings: fipronil 62.5 mL/ha; for number of predatory bugs per meter: 1st spray, BC 667/DAT 511 0.50 L/ha; for number of predatory bugs per metre: 2nd spray, BC 667/DAT 511 0.5 L/ha
Experimental: The trial was conducted on commercial Bollgard II® cotton crops at Norwood near Moree, NSW from 5 Dec. 2010 to 19 Feb. 2011. The cotton was at the early squaring stage, when it was attractive to green mirids (Khan et al. 2004).
The study evaluated the efficacy of the following treatments against green mirids, green vegetable bugs and predatory insects: • 1. 500 mL/ha BC 667 spore in oil (1×10^7 spores/ml); • 2. 500 mL/ha DAT 511 spore in oil (1×10^7 spores/ml); • 3. 62.5 mL/ha Fipronil (conventional insecticide); and • 4. Unsprayed (control).
The treatment plots were arranged in a randomized complete block design with four replicates per treatment. Each replicated plot measured 0.5 ha. Foliar application of each treatment was made on 18 Jan. 2011 using a ground spray rig fitted with flat fan nozzles to achieve a droplet size of 80 250 μm. The treatment was applied in the mornings when temperature was between 20° C. and 28° C. The timing of treatment was based on an economic threshold of 0.5 green mirids per metre, the IPM guideline and recommendation by CottonLogic.
Pre-treatment counts of green mirid adults and nymphs, predatory beetles, predatory bugs, predatory lacewings and spiders were made by visual inspection of whole cotton plants. Both adults and nymphs of the beneficial insects were counted. Plants were assessed in randomly selected one-metre lengths of row of each treatment replicate (i.e. four metres per treatment). In all, two spray applications of each treatment were made. The first spray was made on 18 Jan. 2011. Post-treatment counts of the first spray application were taken 3, 7 and 14 days after treatment (DAT) (first spray). A second spray application was done on 1 Feb. 2011 when green mirid adults plus nymphs reached the threshold of 0.5 per metre. Post-treatment counts of the second spray application were taken 3, 7, 14, 21 and 28 DAT. Data are expressed as numbers of individuals of that species counted per metre for each treatment.

predatory lacewings = assay: Rate trial on conventional cotton refuge crops, Undabri 2012 (Example 12): predatory lacewings; type: in vivo, Chrysopa spp., Micromus tasmaniae; settings: DAT 511 250 mL/ha, 500 mL/ha and 1.0 L/ha; fipronil 62.5 mL/ha
Experimental: This trial was conducted using commercial conventional cotton refuge crops at Undabri in Goondiwindi (28° 55'S, 150° 31′E) from 14 Feb. to 6 Mar. 2012.
as §1, with “mirids, green vegetable bugs” for “mirids”, “was assessed:” for “were evaluated:”, “fipronil;” for “of Fipronil;”
The plots were arranged in a randomized complete block design with three replicates per treatment. Each replicated plot measured 8 m (8 rows) wide and 250 m long.
Foliar applications of each treatment were made on 14 Feb. 2012 using a ground spray rig fitted with flat fan nozzles to achieve a droplet size of 200 μm. All insecticide formulations were water miscible. All treatments were applied using a spray volume of 100 L/ha. The untreated (negative control) plot was left unsprayed and the plot treated with synthetic insecticide received two applications similar to, and on the same date as, the plots treated with the fungus.
For each replicate, visual counts of adults and nymphs of green mirids, green vegetable bugs (GVB), apple dimpling bugs and predatory insects on whole cotton plants were made in a randomly selected 1 m length of row of cotton plants (i.e. 6 m per treatment). […]

N#Cc1nn(-c2c(Cl)cc(C(F)(F)F)cc2Cl)c(N)c1[S+]([O-])C(F)(F)F (stereo not drawn) [fipronil]
number of predatory bugs versus unsprayed (control) plots (predatory bugs [1]): No significant difference
number of predatory bugs per meter (predatory bugs [2]; 3 DAT): 0.33 ± 0.33 a per meter
number of predatory bugs per meter (predatory bugs [2]; 7 DAT): 0.67 ± 0.33 a per meter
number of predatory bugs per meter (predatory bugs [2]; 14 DAT): 1.33 ± 0.33 a per meter
number of predatory bugs per meter (predatory bugs [2]; pre-spray counts 18 Jan. 2011): 0.67 ± 0.33 a per meter
number of predatory bugs per metre (predatory bugs [2]; 3 DAT): 0.33 ± 0.33a per metre
number of predatory bugs per metre (predatory bugs [2]; 7 DAT): 0.33 ± 0.33a per metre
number of predatory bugs per metre (predatory bugs [2]; 14 DAT): 0.67 ± 0.33a per metre
number of predatory bugs per metre (predatory bugs [2]; 21 DAT): 1.00 ± 0.58a per metre
number of predatory bugs per metre (predatory bugs [2]; 28 DAT): 0.67 ± 0.33a per metre
number of predatory bugs per metre (predatory bugs [2]; pre-spray counts 1 Feb. 2011): 1.33 ± 0.33a per metre
effect on number of predatory lacewings per metre (predatory lacewings): significantly lower
